Literature values in US20030111427A1, “Composition for controlling the dissolving rate of solid sanitizers” (Arch Chemicals, Inc., priority 2001, published 2003).

Conditions: at 30° C.

Structure (SMILES): [Ca+2].[O-]Cl.[O-]Cl [calcium hypochlorite]
- time for all of the calcium hypochlorite to dissolve (21.6 grams in 100 grams of water): less than 5 minutes
- amount that dissolves in 100 grams of water (in 100 grams of water): about 21.6 grams
